Measured values from PubChem BioAssay AID1919006 (Molecular Pharmacology Branch, DTP, NCI, 2023).
Several values for one entry are separate records, joined by “and”; a condition that tells them apart may be missing. Equal values may be shown once.

System: 885512-296-R-J2-PDC complex spheroid growth, % test/control
Assay: Anticancer human tumor 885512-296-R-J2-PDC patient-derived breast carcinoma cell line growth inhibition [AhR]
Settings: for viability, T/C: stronger effect = lower value
In short: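 Agents were dosed in half-log steps down from roughly clinical Cmax, or from 10 microM where Cmax was unknown, alone and with AhR antagonists. Read-out: percent test/control growth of tumor spheroids containing HUVEC and MSC stromal cells.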

[1] = curve of first compound, second compound 0.1 µM
[2] = curve of first compound, second compound 0.316 µM
[3] = curve of first compound, second compound 1 µM
[4] = curve of first compound, second compound 3.16 µM
[5] = curve of first compound, second compound 10 µM
[6] = second compound 0.1 µM, first compound 0.0316 µM
[7] = second compound 0.1 µM, first compound 0.1 µM
[8] = second compound 0.1 µM, first compound 0.316 µM
[9] = second compound 0.1 µM, first compound 1 µM
[10] = second compound 0.316 µM, first compound 0.0316 µM
[11] = second compound 0.316 µM, first compound 0.1 µM
[12] = second compound 0.316 µM, first compound 0.316 µM
[13] = second compound 0.316 µM, first compound 1 µM
[14] = second compound 1 µM, first compound 0.0316 µM
[15] = second compound 1 µM, first compound 0.1 µM
[16] = second compound 1 µM, first compound 0.316 µM
[17] = second compound 1 µM, first compound 1 µM
[18] = second compound 3.16 µM, first compound 0.0316 µM
[19] = second compound 3.16 µM, first compound 0.1 µM
[20] = second compound 3.16 µM, first compound 0.316 µM
[21] = second compound 3.16 µM, first compound 1 µM
[22] = second compound 10 µM, first compound 0.0316 µM
[23] = second compound 10 µM, first compound 0.1 µM
[24] = second compound 10 µM, first compound 0.316 µM
[25] = second compound 10 µM, first compound 1 µM
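Further: spheroids exposed to compounds for seven days.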

## CC1(C)CCC(CN2CCN(c3ccc(C(=O)NS(=O)(=O)c4ccc(NCC5CCOCC5)c([N+](=O)[O-])c4)c(Oc4cnc5[nH]ccc5c4)c3)CC2)=C(c2ccc(Cl)cc2)C1 + Cc1ccccc1N=Nc1ccc(NC(=O)c2ccnn2C)c(C)c1
[1]
  IC50: 4210 nM
[2]
  IC50: 4240 nM
[3]
  IC50: 4140 nM
[4]
  IC50: 3050 nM
[5]
  IC50: 288 nM
[6]
  viability, T/C: 107%
[7]
  viability, T/C: 85.4%
[8]
  viability, T/C: 103%
[9]
  viability, T/C: 90.2%
Second compound 0.1 µM, first compound 3.16 µM
  viability, T/C: 61.4%
Second compound 0.1 µM, first compound 10 µM
  viability, T/C: 16.1%
[10]
  viability, T/C: 109%
[11]
  viability, T/C: 116%
[12]
  viability, T/C: 102%
[13]
  viability, T/C: 85.1%
Second compound 0.316 µM, first compound 3.16 µM
  viability, T/C: 63.7%
Second compound 0.316 µM, first compound 10 µM
  viability, T/C: 15.8%
[14]
  viability, T/C: 97.9%
[15]
  viability, T/C: 97.8%
[16]
  viability, T/C: 94.2%
[17]
  viability, T/C: 86%
Second compound 1 µM, first compound 3.16 µM
  viability, T/C: 60.4%
Second compound 1 µM, first compound 10 µM
  viability, T/C: 15.5%
[18]
  viability, T/C: 93.8%
[19]
  viability, T/C: 83.1%
[20]
  viability, T/C: 83.3%
[21]
  viability, T/C: 73.3%
Second compound 3.16 µM, first compound 3.16 µM
  viability, T/C: 48.3%
Second compound 3.16 µM, first compound 10 µM
  viability, T/C: 14.9%
[22]
  viability, T/C: 46.4%
[23]
  viability, T/C: 53.8%
[24]
  viability, T/C: 53.2%
[25]
  viability, T/C: 44.6%
Second compound 10 µM, first compound 3.16 µM
  viability, T/C: 40.2%
Second compound 10 µM, first compound 10 µM
  viability, T/C: 15.7%

## Nc1ncn(C2CC(O)C(CO)O2)c(=O)n1 (stereo unspecified) + Cc1cncc(-c2nc(NCCc3c[nH]c4ccccc34)c3ncn(C(C)C)c3n2)c1
[1]
  IC50: 863 nM
[2]
  IC50: 871 nM
[3]
  IC50: > 1000 nM
[4]
  IC50: 354 nM
[5]
  IC50: < 3.16 nM
Second compound 0.1 µM, first compound 0.00316 µM
  viability, T/C: 93.5%
Second compound 0.1 µM, first compound 0.01 µM
  viability, T/C: 104%
[6]
  viability, T/C: 101%
[7]
  viability, T/C: 93.6%
[8]
  viability, T/C: 74.4%
[9]
  viability, T/C: 46.4%
Second compound 0.316 µM, first compound 0.00316 µM
  viability, T/C: 101%
Second compound 0.316 µM, first compound 0.01 µM
  viability, T/C: 113%
[10]
  viability, T/C: 88.9%
[11]
  viability, T/C: 93.7%
[12]
  viability, T/C: 77.7%
[13]
  viability, T/C: 45.9%
Second compound 1 µM, first compound 0.00316 µM
  viability, T/C: 91.5%
Second compound 1 µM, first compound 0.01 µM
  viability, T/C: 86%
[14]
  viability, T/C: 80.7%
[15]
  viability, T/C: 90.4%
[16]
  viability, T/C: 76%
[17]
  viability, T/C: 58.5%
Second compound 3.16 µM, first compound 0.00316 µM
  viability, T/C: 67.8%
Second compound 3.16 µM, first compound 0.01 µM
  viability, T/C: 68.5%
[18]
  viability, T/C: 57.2%
[19]
  viability, T/C: 58.3%
[20]
  viability, T/C: 46%
[21]
  viability, T/C: 48.1%
Second compound 10 µM, first compound 0.00316 µM
  viability, T/C: 18.5%
Second compound 10 µM, first compound 0.01 µM
  viability, T/C: 20.6%
[22]
  viability, T/C: 20.7%
[23]
  viability, T/C: 11.7%
[24]
  viability, T/C: 14.9%
[25]
  viability, T/C: 12.7%

## Nc1ncn(C2CC(O)C(CO)O2)c(=O)n1 (stereo unspecified)
Compound 0.00316 µM
  viability, T/C: 90.1% and 103% and 107%
Compound 0.01 µM
  viability, T/C: 89.7% and 93.7% and 117%
Compound 0.0316 µM
  viability, T/C: 98.7% and 97.9% and 108%
Compound 0.1 µM
  viability, T/C: 82.1% and 86% and 107%
Compound 0.316 µM
  viability, T/C: 65.7% and 74.5% and 72%
Compound 1 µM
  viability, T/C: 41.9% and 42.8% and 39.9%
Curve of compound
  IC50: 670 nM and 776 nM and 697 nM

## Cc1cncc(-c2nc(NCCc3c[nH]c4ccccc34)c3ncn(C(C)C)c3n2)c1
Compound 0.1 µM
  viability, T/C: 105% [middle of 20 runs]
Compound 3.16 µM
  viability, T/C: 60% [middle of 20 runs]
Compound 10 µM
  viability, T/C: 19.6% [middle of 20 runs]
Compound alone, run of 08/16/2022
  IC50: 4.14 µM [middle of 24 runs]
